The text below walks through data of ChEMBL document CHEMBL4011581, “Interference with bile salt export pump function is a susceptibility factor for human liver injury in drug development” (Toxicol Sci, 2010).

Structures can show the parent of a compound that is named as a salt.

The first data set addresses T1, Bile salt export pump (Homo sapiens, UniProt O95342). The data set can be described thus: Inhibition of BSEP in human hepatocytes assessed as reduction in biliary excretion of [3H]-taurocholate in cell lysates after 15 mins by liquid scintillation counting. In kind it is ADME, cell-based, Lysate.
Usually IC50 stands for the concentration that inhibits the measured activity by half. `CC(C)C(=O)Nc1ccc([N+](=O)[O-])c(C(F)(F)F)c1` [FLUTAMIDE]: the IC50 was 75 µM.

A further data set deals with T1, Bile salt export pump. The data set can be described thus: Inhibition of human BSEP expressed in fall armyworm sf9 cell membrane vesicles assessed as reduction in ATP-dependent [3H]-taurocholic acid uptake at 100 uM preincubated for 30 mins prior to [3H]-taurocholic acid addition by liquid scintillation counting relative to control. In kind it is ADME.
On to `CC(C)C(=O)Nc1ccc([N+](=O)[O-])c(C(F)(F)F)c1` [FLUTAMIDE], for which the Imax was 40 to 50%.

The next data set deals with T1, Bile salt export pump. The data set can be described thus: Inhibition of human BSEP expressed in fall armyworm sf9 cell membrane vesicles assessed as reduction in ATP-dependent [3H]-taurocholic acid uptake preincubated for 30 mins prior to [3H]-taurocholic acid addition by liquid scintillation counting. In kind it is ADME.
On to `CC(C)C(=O)Nc1ccc([N+](=O)[O-])c(C(F)(F)F)c1` [FLUTAMIDE], for which the IC50 was 50 µM.

Another data set has as its target T1, Bile salt export pump. The data set can be described thus: Inhibition of human BSEP expressed in fall armyworm sf9 cell membrane vesicles assessed as reduction in vesicle-associated [3H]-taurocholate at 133 uM preincubated for 10 mins prior to ATP addition measured after 15 mins in presence of [3H]-taurocholate by topcount based membrane vesicle transport assay relative to control. It counts as ADME.
Turning to `CC(C)C(=O)Nc1ccc([N+](=O)[O-])c(C(F)(F)F)c1` [FLUTAMIDE], the Imax is on record as 50%.

The next data set deals with T1, Bile salt export pump. The data set can be described thus: Inhibition of BSEP in human hepatocytes assessed as reduction in biliary excretion of [3H]-taurocholate in cell lysates at 10 to 100 uM after 15 mins by liquid scintillation counting relative to control. In kind it is ADME, cell-based, Lysate.
Consider `CC(C)C(=O)Nc1ccc([N+](=O)[O-])c(C(F)(F)F)c1` [FLUTAMIDE], for which the Imax was found to be 20%.

For the next data set, the target named is T1, Bile salt export pump. The data set can be described thus: Inhibition of human BSEP expressed in fall armyworm sf9 cell plasma membrane vesicles assessed as reduction in vesicle-associated [3H]-taurocholate transport preincubated for 10 mins prior to ATP addition measured after 15 mins in presence of [3H]-taurocholate by topcount based membrane vesicle transport assay. In kind it is ADME.
For the molecule `CC(C)C(=O)Nc1ccc([N+](=O)[O-])c(C(F)(F)F)c1` [FLUTAMIDE], the IC50 is > 135 µM. On the same count and under the same terms, in the case of `[H]/N=C(/N)N/C(=N/[H])NCCc1ccccc1` [PHENFORMIN] it was > 135 µM; in that of `CCC1(c2ccccc2)C(=O)NC(=O)NC1=O` [PHENOBARBITAL], > 135 µM.

For `CCc1ccc(CCOc2ccc(CC3SC(=O)NC3=O)cc2)nc1` (configuration not stated) [PIOGLITAZONE], the IC50 was 0.4 µM.

Take `Cc1cccc(Nc2cc(Cl)nc(SCC(=O)O)n2)c1C` [PIRINIXIC ACID]: the IC50 fell in the range of 75 to 105 µM.

With `COc1cc2nc(N3CCN(C(=O)c4ccco4)CC3)nc(N)c2cc1OC` [PRAZOSIN], the IC50 is > 135 µM. On the same count and under the same terms, the value for `COc1cc(NC(C)CCCN)c2ncccc2c1` (configuration not stated) [PRIMAQUINE] was 32.7 µM.

Regarding `CC(CN1c2ccccc2Sc2ccccc21)N(C)C` (configuration not stated) [PROMETHAZINE], the IC50 is > 135 µM. The same measure, in the same setting: the value for `O=c1c(O)c(-c2ccc(O)c(O)c2)oc2cc(O)cc(O)c12` [QUERCETIN] was > 135 µM. Same read-out and setting: the value for `C=C[C@H]1C[N@@]2CC[C@H]1C[C@@H]2[C@@H](O)c1ccnc2ccc(OC)cc12` [QUINIDINE] was > 135 µM. The same measure, in the same setting: in the case of `C=C[C@H]1C[N@@]2CC[C@H]1C[C@H]2[C@H](O)c1ccnc2ccc(OC)cc12` [QUININE] it was > 135 µM; in that of `CCN1CCC[C@H]1CNC(=O)c1c(OC)ccc(Br)c1OC` [REMOXIPRIDE], > 135 µM. For the molecule `COC(=O)[C@H]1[C@H]2C[C@@H]3c4[nH]c5cc(OC)ccc5c4CCN3C[C@H]2C[C@@H](OC(=O)c2cc(OC)c(OC)c(OC)c2)[C@@H]1OC` [RESERPINE], the IC50 worked out at 8.4 µM.

As to `CO[C@H]1/C=C/O[C@@]2(C)Oc3c(C)c(O)c4c(c3C2=O)C2=NC3(CCN(CC(C)C)CC3)NC2=C(NC(=O)/C(C)=C\C=C\[C@H](C)[C@H](O)[C@@H](C)[C@@H](O)[C@@H](C)[C@H](OC(C)=O)[C@@H]1C)C4=O` [RIFABUTIN], the IC50 is 26.7 µM.

Consider `CO[C@H]1/C=C/O[C@@]2(C)Oc3c(C)c(O)c4c(O)c(c(/C=N/N5CCN(C)CC5)c(O)c4c3C2=O)NC(=O)/C(C)=C\C=C\[C@H](C)[C@H](O)[C@@H](C)[C@@H](O)[C@@H](C)[C@H](OC(C)=O)[C@@H]1C` [RIFAMPIN], for which the IC50 turned out to be 25.3 µM. The same measure, in the same setting: in the case of `CS(=O)(=O)c1ccc(C2=C(c3ccccc3)C(=O)OC2)cc1` [ROFECOXIB] it was > 135 µM; in that of `CN(CCOc1ccc(CC2SC(=O)NC2=O)cc1)c1ccccn1` (configuration not stated) [ROSIGLITAZONE], 4.4 µM. As to `C#CCN(C)[C@H](C)Cc1ccccc1` [SELEGILINE HYDROCHLORIDE], the IC50 is > 135 µM.

On to `N[C@@H](CC(=O)N1CCn2c(nnc2C(F)(F)F)C1)Cc1cc(F)c(F)cc1F` [SITAGLIPTIN], for which the IC50 is > 135 µM.

For `CNC(=O)c1cc(Oc2ccc(NC(=O)Nc3ccc(Cl)c(C(F)(F)F)c3)cc2)ccn1` [SORAFENIB], the IC50 is 8 µM. Still for that read-out and setting: in the case of `CC(C)NCC(O)c1ccc(NS(C)(=O)=O)cc1` (configuration not stated) [SOTALOL] it was > 135 µM; in that of `CN[C@@H]1C[C@H]2O[C@@](C)([C@@H]1OC)n1c3ccccc3c3c4c(c5c6ccccc6n2c5c31)C(=O)NC4` [STAUROSPORINE], 18.7 µM. On the same count and under the same terms, in the case of `Nc1ccc(S(=O)(=O)Nc2ncccn2)cc1` [SULFADIAZINE] it was > 135 µM; in that of `Cc1cc(NS(=O)(=O)c2ccc(N)cc2)no1` [SULFAMETHOXAZOLE], > 135 µM. On the same count and under the same terms, in the case of `Cc1noc(NS(=O)(=O)c2ccc(N)cc2)c1C` [SULFISOXAZOLE] it was > 135 µM.

With `Cc1ccc(C(=O)Nc2ccc(S(=O)(=O)O)c3cc(S(=O)(=O)O)cc(S(=O)(=O)O)c23)cc1NC(=O)c1cccc(NC(=O)Nc2cccc(C(=O)Nc3cc(C(=O)Nc4ccc(S(=O)(=O)O)c5cc(S(=O)(=O)O)cc(S(=O)(=O)O)c45)ccc3C)c2)c1` [SURAMIN], the IC50 is > 135 µM. Still for that read-out and setting: the value for `Nc1c2c(nc3ccccc13)CCCC2` [TACRINE] was > 135 µM; that for `CC[C@H]1OC(=O)[C@H](C)C(=O)[C@H](C)[C@@H](O[C@@H]2O[C@H](C)C[C@H](N(C)C)[C@H]2O)[C@](C)(OC)C[C@@H](C)C(=O)[C@H](C)[C@H]2N(CCCCn3cnc(-c4cccnc4)c3)C(=O)O[C@]12C` [TELITHROMYCIN] was 4 µM; that for `CN1C(C(=O)Nc2ccccn2)=C(O)c2sccc2S1(=O)=O` [TENOXICAM] was > 135 µM. On the same count and under the same terms, the value for `CC(C)(C)NCC(O)c1cc(O)cc(O)c1` (configuration not stated) [TERBUTALINE] was > 135 µM. As to `Cn1c(=O)c2[nH]cnc2n(C)c1=O` [THEOPHYLLINE], the IC50 was > 135 µM. Consider `S=P(N1CC1)(N1CC1)N1CC1` [THIOTEPA], for which the IC50 is > 135 µM. The same measure, in the same setting: the value for `CCN(CC)CCOc1ccc2c(c1)C(=O)c1cc(OCCN(CC)CC)ccc1-2` [TILORONE] was > 135 µM; that for `CC(C)(C)NC[C@H](O)COc1nsnc1N1CCOCC1` [TIMOLOL] was > 135 µM. Still for that read-out and setting: the value for `Clc1ccc2nsnc2c1NC1=NCCN1` [TIZANIDINE] was > 135 µM. Take `CCCCNC(=O)NS(=O)(=O)c1ccc(C)cc1` [TOLBUTAMIDE]: the IC50 is > 135 µM. Consider `Cc1ccc(C(=O)c2cc(O)c(O)c([N+](=O)[O-])c2)cc1` [TOLCAPONE], for which the IC50 turned out to be 34.5 µM. The same measure, in the same setting: in the case of `O=c1n(CCCN2CCN(c3cccc(Cl)c3)CC2)nc2ccccn12` [TRAZODONE] it was > 135 µM. On the same count and under the same terms, the value for `COc1cc(Cc2cnc(N)nc2N)cc(OC)c1OC` [TRIMETHOPRIM] was > 135 µM. The same measure, in the same setting: the value for `Cc1c(C)c2c(c(C)c1O)CCC(C)(COc1ccc(CC3SC(=O)NC3=O)cc1)O2` (configuration not stated) [TROGLITAZONE] was 5.9 µM. `COc1cc2c3cc1Oc1cc(ccc1O)C[C@@H]1c4c(cc(OC)c(O)c4Oc4ccc(cc4)C[C@@H]3N(C)CC2)CC[N+]1(C)C` [TUBOCURARINE]: the IC50 was > 135 µM. On the same count and under the same terms, in the case of `CC(C)[C@@H]1NC(=O)[C@H](C)OC(=O)[C@@H](C(C)C)NC(=O)[C@@H](C(C)C)OC(=O)[C@H](C(C)C)NC(=O)[C@H](C)OC(=O)[C@@H](C(C)C)NC(=O)[C@@H](C(C)C)OC(=O)[C@H](C(C)C)NC(=O)[C@H](C)OC(=O)[C@@H](C(C)C)NC(=O)[C@@H](C(C)C)OC1=O` [VALINOMYCIN] it was 1.6 µM; in that of `COc1ccc(C(CN(C)C)C2(O)CCCCC2)cc1` (configuration not stated) [VENLAFAXINE], > 135 µM; in that of `CC[C@]1(O)C[C@@H]2CN(CCc3c([nH]c4ccccc34)[C@@](C(=O)OC)(c3cc4c(cc3OC)N(C)[C@H]3[C@@](O)(C(=O)OC)[C@H](OC(C)=O)[C@]5(CC)C=CCN6CC[C@]43[C@@H]65)C2)C1` [VINBLASTINE], > 135 µM. On the same count and under the same terms, the value for `COC[C@H]1OC(=O)c2coc3c2[C@@]1(C)C1=C(C3=O)[C@@H]2CCC(=O)[C@@]2(C)C[C@H]1OC(C)=O` [WORTMANNIN] was 13.6 µM; that for `O=P(O)(O)C(O)(Cn1ccnc1)P(=O)(O)O` [ZOLEDRONIC ACID] was > 135 µM. Still for that read-out and setting: in the case of `NS(=O)(=O)Cc1noc2ccccc12` [ZONISAMIDE] it was > 135 µM.
